# From patent US20220185822A1, “SELECTIVE LIGANDS OF HUMAN CONSTITUTIVE ANDROSTANE RECEPTOR” (USTAV ORGANICKE CHEMIE A BIOCHEMIE AV CR, V.V.I., priority 2019, published 2022)
# Entries after “also recorded” stand apart in the source; their conditions may differ.
# How the values were obtained:
# [1] = assay type: in vivo
# Method: Livers were sampled 24 hours after the last application into liquid nitrogen. In case of i.p. Glucose Tolerance test (IPGTT), each mouse on chronic high fat diet received i.p. application of 20% glucose solution at the dose of lg glucose per kg b.w. Blood glucose concentration was analyzed with a glucometer from blood sampled from the tail. In case of i.p. Isulin Tolerance test (IPITT), mice received insulin administered via i.p. application in the dose of 0.75 mU/g b.w.
# [2] = Pharmacokinetic studies in mice
# PPARδ = target: T1, PPARδ (Homo sapiens, UniProt Q03181); assay: Luciferase reporter assay with GAL4 construct with LBD, PPARδ; assay type: cell-based; settings: 10 μM/L
# T1 construct: luciferase reporter assays with a GAL4 constructs with LBD of tested nuclear receptors; expressed in transfected cells
# [3] = Metabolic stability in human liver S9 fraction; assay type: in vitro ADME; settings: read-out: T1/2 in human liver S9 fraction
# human CYP3A4 = target: T2, human CYP3A4 (Homo sapiens, UniProt P08684); assay: Commercial CYP450-Glo inhibition assay, CYP3A4; assay type: in vitro ADME
# T2 construct: purchased Promega V8802
# COS-1 cells = assay: Cytotoxicity, cell viability (MTS) in COS-1; assay type: cell-based, African green monkey; settings: Chlorocebus sabaeus, 48-h treatment, no significant effect at 30 μM/L
# Method: Cell viability in HepG2 and COS-1 cells after a 48 h treatment with test compounds at a concentration from 1 up to 30 μM was determined using the modified formazan-based […] assay. […] Briefly, the cells were treated with the test compounds or vehicle alone (DMSO) for 48 h. At the end of the treatment, 20 μl of MTS reagent was added directly to each culture wells and further cultivated for 1.5 h. Finally, the absorbance of converted formazan was recorded at 490 nm by plate reader (BioTec Synergy 2. Winooski. Vt. USA). Vehicle (DMSO) and TritonX100 (0.9%; v/v) controls of cell viability were set to be 100% and 0%, respectively.
# human CAR LBD = target: T3, human CAR LBD (Homo sapiens, UniProt Q14994); assay: CAR LBD assembly assay (two hybrid luciferase reporter in HepG2 cells); assay type: cell-based
# T3 construct: C (151-349 aa) and N (103-150 aa) terminal parts of human CAR LBD; N (103-150 aa) terminal parts of human CAR LBD; expressed in transfected cells; host or cells: HepG2
# T3 sequence (Q14994 151-348 isoform Q14994-2 limits assumed): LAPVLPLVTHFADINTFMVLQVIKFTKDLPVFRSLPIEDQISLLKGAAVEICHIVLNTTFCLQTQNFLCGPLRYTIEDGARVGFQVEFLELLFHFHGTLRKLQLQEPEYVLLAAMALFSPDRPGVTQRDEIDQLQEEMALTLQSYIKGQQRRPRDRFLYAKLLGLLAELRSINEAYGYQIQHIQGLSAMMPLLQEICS
# T3 sequence (Q14994 103-150 isoform Q14994-2 limits assumed): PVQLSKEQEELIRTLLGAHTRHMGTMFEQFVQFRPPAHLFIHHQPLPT
# Method: A ligand promotes connection of the two parts of CAR LBD resulting in luciferase transactivation. Luminescence activity in the cell lysate was measured using a commercially available luciferase detection system (Catalog Number E1960, Dual Luciferase Reporter Assay Kit, Promega, Madison, Wis., USA). The data are presented as means and S.D. and expressed as the fold-change of firefly luciferase activity normalized to Renilla luciferase activity in each sample and relative to the vehicle (DMSO 0.1%)-treated controls, which were set at 1.
# human CYP1A2 = target: T4, human CYP1A2 (Homo sapiens, UniProt P05177); assay: Commercial CYP450-Glo inhibition assay, CYP1A2; assay type: in vitro ADME
# T4 construct: purchased Promega V8772
# estradion α receptor = target: T5, estradion α receptor (Homo sapiens, UniProt P03372); assay: Luciferase reporter assay with GAL4 construct with LBD, estradion α receptor; assay type: cell-based; settings: 10 μM/L
# T5 construct: luciferase reporter assays with a GAL4 constructs with LBD of tested nuclear receptors; expressed in transfected cells
# [4] = system: CYP2B6 mRNA (CAR target gene); assay: RT-qPCR of CYP2B6 mRNA in HepaRG cells; assay type: cell-based, human; settings: 24 h of treatment (FIG. 3)
# Description: (§1) Delta-delta method and GAPDH/Gapdh or B2M/B2m housekeeping genes were used for relative quantification. Data are expressed as fold up-/down-regulation compare to vehicle-treated samples/mice.
# [5] = system: differentiated HepaRG cells; assay: Viability/cytotoxicity in differentiated HepaRG cells; assay type: cell-based, human; settings: 48 h treatment
# [6] = system: CYP2B6 mRNA (CAR target gene); assay: RT-qPCR of CYP2B6 mRNA in primary human hepatocytes; assay type: cell-based; settings: 48 hours, 1 and 5 μM/L (FIG. 4)
# Description: as §1
# [7] = Human plasma protein binding (micro-equilibrium dialysis); assay type: in vitro ADME; settings: at 1 μM/L
# [8] = system: CYP2B6 mRNA in HepaRG KO CAR cells; assay: RT-qPCR of CYP2B6 mRNA in HepaRG KO CAR cells; assay type: cell-based, human; settings: 24 h of treatment (FIG. 3)
# Description: as §1
# [9] = system: Salmonella typhimurium strains TA 98, TA 100, TA 1535, TA 1537 and Escherichia coli WP2 uvrA strain; assay: Bacterial Reverse Mutation Test (OECD 471)
# estradion β receptor = target: T6, estradion β receptor (Homo sapiens, UniProt Q92731); assay: Luciferase reporter assay with GAL4 construct with LBD, estradion β receptor; assay type: cell-based; settings: 10 μM/L
# T6 construct: luciferase reporter assays with a GAL4 constructs with LBD of tested nuclear receptors; expressed in transfected cells
# in vivo = settings: C57BL/6, mouse, 10 mg/kg
# live X receptor α = target: T7, live X receptor α (Homo sapiens, UniProt Q13133); assay: Luciferase reporter assay with GAL4 construct with LBD, live X receptor α; assay type: cell-based; settings: 10 μM/L
# T7 construct: luciferase reporter assays with a GAL4 constructs with LBD of tested nuclear receptors; expressed in transfected cells
# PPARα = target: T8, PPARα (Homo sapiens, UniProt Q07869); assay: Luciferase reporter assay with GAL4 construct with LBD, PPARα; assay type: cell-based; settings: 10 μM/L
# T8 construct: luciferase reporter assays with a GAL4 constructs with LBD of tested nuclear receptors; expressed in transfected cells
# vitamin D receptor = target: T9, vitamin D receptor (Homo sapiens, UniProt P11473); assay: Luciferase reporter assay with GAL4 construct with LBD, vitamin D receptor; assay type: cell-based; settings: 10 μM/L
# T9 construct: luciferase reporter assays with a GAL4 constructs with LBD of tested nuclear receptors; expressed in transfected cells
# [10] = Repeated Dose 7-day Oral Toxicity Study in Rats; assay type: in vivo; settings: 1 and 10 mg/kg
# Method: The studies were conducted on female rats.
# [11] = system: CYP3A4, CYP1A2, CYP2C9, CYP2C19, CYP2C8, CYP2D6, CYP2B6 (panel); assay: in vitro; settings: both, human, pooled human liver microsomes
# [12] = 10 mg/kg b.w. by gavage for 4 weeks, 60% high-fat diet 8 weeks
# T1 sequence (Q03181 211-439 limits assumed): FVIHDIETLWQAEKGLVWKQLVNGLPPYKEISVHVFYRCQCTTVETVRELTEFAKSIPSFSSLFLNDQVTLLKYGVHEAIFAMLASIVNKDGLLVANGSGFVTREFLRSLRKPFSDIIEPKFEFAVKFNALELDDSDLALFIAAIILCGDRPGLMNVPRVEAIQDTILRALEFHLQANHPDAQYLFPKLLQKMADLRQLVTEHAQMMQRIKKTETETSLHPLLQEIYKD
# T2 sequence (P08684 whole entry): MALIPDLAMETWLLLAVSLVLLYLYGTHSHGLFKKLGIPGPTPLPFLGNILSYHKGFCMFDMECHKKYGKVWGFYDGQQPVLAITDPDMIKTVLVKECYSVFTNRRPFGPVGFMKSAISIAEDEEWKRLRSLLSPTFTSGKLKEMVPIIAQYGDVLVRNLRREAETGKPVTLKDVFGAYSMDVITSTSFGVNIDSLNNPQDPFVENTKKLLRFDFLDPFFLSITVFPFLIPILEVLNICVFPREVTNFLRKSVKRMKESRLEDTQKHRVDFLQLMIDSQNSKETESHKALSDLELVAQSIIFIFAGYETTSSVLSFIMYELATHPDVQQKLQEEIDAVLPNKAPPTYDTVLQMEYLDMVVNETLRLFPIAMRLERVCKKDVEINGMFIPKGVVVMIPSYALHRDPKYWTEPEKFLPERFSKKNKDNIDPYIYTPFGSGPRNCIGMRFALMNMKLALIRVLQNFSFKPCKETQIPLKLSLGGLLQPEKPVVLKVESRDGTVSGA
# T6 sequence (Q92731 264-498 limits assumed): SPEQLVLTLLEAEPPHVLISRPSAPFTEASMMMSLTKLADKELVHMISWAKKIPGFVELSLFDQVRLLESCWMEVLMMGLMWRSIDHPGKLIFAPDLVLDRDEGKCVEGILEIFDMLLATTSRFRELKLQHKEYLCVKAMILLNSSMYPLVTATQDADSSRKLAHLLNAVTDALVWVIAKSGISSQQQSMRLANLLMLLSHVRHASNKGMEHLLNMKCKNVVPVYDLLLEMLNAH
# T4 sequence (P05177 whole entry): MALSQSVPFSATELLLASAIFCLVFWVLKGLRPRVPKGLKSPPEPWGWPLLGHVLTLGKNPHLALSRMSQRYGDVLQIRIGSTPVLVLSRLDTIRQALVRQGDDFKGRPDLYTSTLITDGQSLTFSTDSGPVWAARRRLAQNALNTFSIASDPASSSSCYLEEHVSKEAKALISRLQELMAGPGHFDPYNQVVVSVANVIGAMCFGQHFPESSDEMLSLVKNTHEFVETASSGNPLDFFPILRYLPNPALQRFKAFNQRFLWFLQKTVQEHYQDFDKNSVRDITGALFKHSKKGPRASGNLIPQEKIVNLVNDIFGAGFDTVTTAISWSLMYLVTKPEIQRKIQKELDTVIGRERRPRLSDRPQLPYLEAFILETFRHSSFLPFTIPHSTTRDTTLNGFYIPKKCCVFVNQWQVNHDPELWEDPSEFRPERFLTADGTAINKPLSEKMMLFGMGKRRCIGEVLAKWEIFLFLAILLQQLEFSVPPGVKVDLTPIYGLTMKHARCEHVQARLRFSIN
# T9 sequence (P11473 127-423 limits assumed): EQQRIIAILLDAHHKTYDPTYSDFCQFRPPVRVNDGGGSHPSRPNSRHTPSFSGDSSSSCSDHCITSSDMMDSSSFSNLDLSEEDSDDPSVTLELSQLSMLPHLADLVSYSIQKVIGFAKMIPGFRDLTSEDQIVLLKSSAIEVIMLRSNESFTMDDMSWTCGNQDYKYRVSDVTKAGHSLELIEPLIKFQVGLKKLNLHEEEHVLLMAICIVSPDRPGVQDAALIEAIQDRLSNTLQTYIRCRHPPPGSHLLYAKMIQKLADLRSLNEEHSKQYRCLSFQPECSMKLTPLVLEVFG
# T7 sequence (Q13133 209-447 limits assumed): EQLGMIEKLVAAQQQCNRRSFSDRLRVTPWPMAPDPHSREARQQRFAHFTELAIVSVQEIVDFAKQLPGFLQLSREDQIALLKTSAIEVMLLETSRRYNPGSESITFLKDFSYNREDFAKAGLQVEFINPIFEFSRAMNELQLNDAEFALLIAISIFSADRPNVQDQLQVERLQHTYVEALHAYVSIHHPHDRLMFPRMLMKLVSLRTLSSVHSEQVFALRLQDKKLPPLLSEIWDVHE
# T8 sequence (Q07869 239-466 limits assumed): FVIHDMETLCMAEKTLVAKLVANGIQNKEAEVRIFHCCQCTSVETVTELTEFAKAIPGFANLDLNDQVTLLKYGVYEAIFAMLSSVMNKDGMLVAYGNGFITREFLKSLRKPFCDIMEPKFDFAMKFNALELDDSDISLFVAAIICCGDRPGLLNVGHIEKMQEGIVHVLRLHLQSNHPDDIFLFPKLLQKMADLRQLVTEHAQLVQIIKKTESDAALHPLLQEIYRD
# T5 sequence (P03372 311-547 limits assumed): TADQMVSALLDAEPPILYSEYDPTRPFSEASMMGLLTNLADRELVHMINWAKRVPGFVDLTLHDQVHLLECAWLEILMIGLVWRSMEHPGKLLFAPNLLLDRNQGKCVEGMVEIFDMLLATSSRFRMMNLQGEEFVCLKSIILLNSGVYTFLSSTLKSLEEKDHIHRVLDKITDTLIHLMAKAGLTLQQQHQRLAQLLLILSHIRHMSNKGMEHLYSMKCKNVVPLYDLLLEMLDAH
smiles,measurement,setting,value
"NC(=O)c1cc(Cn2cc(-c3c(-c4ccc(Cl)cc4)nc4cc(F)ccn34)nn2)ccc1Cl [Example 93, 2-Chloro-5-((4-(2-(4-chlorophenyl)-7-fluoroimidazo[1,2-a]pyridin-3-yl)-1H-1,2,3-triazol-1-yl)methyl)benzamide]",insulin sensitivity in IPGTT and IPITT,[1]; [12],stimulatory effect on insulin sensitivity; also recorded: alleviates insuline resistance and stimulates the effect of insuline
same,liver hypertrophy (liver-to-body weight ratio),[1]; [12],does not stimulate significantly liver hypertrophy
same,Mki67 mRNA in mouse liver,"[1]; 10 mg/kg, 4 weeks",did not significantly up-regulate
same,RNA level of Fasn in mouse liver,"[1]; 10 mg/kg, 4 weeks",significantly decrease
same,RNA level of Scd1 in mouse liver,"[1]; 10 mg/kg, 4 weeks",significantly decrease
same,"hepatotoxicity (ALT, AST, ALP, LDH biochemical markers)","[1]; 10 mg/kg, 4 weeks",does not display hepatotoxicity
same,plasma LDL,"[1]; 10 mg/kg, 4 weeks",has an effect; also recorded: decreases
same,plasma cholesterol,"[1]; 10 mg/kg, 4 weeks",has an effect; also recorded: decreases
same,body weight,"[1]; 10 mg/kg, after 4 weeks of application",decrease body weight; also recorded: reduces the body weight
same,Bioavailability (F) based on AUCp.o./AUCi.p. ratio,"[2]; 10 mg/kg, C57BL/6N mice",98.6%
same,delivery into the liver and bile,[2]; FIG. 6,excellent delivery into the liver and bile
same,activation of PPARδ,PPARδ,do not activate
same,half-life at 2 μM,[3],> 2.83 h
same,IC50,human CYP3A4,> 10 µM
same,IC50,COS-1 cells,> 30 µM
same,EC50,human CAR LBD,0.38 µM
same,IC50,human CYP1A2,> 10 µM
same,activation of estradion α receptor,estradion α receptor,do not activate
same,CYP2B6 mRNA in differentiated HepaRG cells,[4],upregulates; also recorded: up-regulation
same,viability/cytotoxicity in differentiated HepaRG cells,[5],no effect on viability/cytotoxicity
same,CYP2B6 mRNA in primary human hepatocytes,[6],up-regulates
same,fraction unbound at 1 μM,[7],0.01
same,CYP2B6 mRNA in HepaRG KO CAR cells,[8],not in HepaRG KO CAR cells
same,mutagenicity in Bacterial Reverse Mutation Test,"[9]; all indicator strains, with and without metabolic activation",non-mutagenic
same,number of revertants compared to solvent controls (Rt/Rc),[9]; with or without S9 fraction,< 2
same,activation of estradion β receptor,estradion β receptor,do not activate
same,half-life,in vivo; ip,3.62 h
same,half-life,in vivo; oral,2.83 h
same,activation of live X receptor α,live X receptor α,do not activate
same,activation of PPARα,PPARα,do not activate
same,activation of vitamin D receptor,vitamin D receptor,do not activate
same,"clinical signs of toxicity, Repeated Dose 7-day Oral Toxicity Study in Rats",[10],No significant clinical signs of toxicity
same,IC50,[11],> 10 µM
